{
  "source": "patent US20110319346A1",
  "about": "“ELECTROSTATIC PROTEIN/GLUCOSINOLATE COMPLEXES” (NESTEC S.A., priority 2009, published 2011)",
  "key": {"[1]": {"assay": "Emulsifying properties: 10% oil-in-water emulsions, stability to creaming and flocculation", "type": "physicochemical", "conditions": "10% oil-in-water emulsion, pH 4.0, without or with heat treatment", "experimental": "Emulsifying properties of samples at pH 4.0 (prepared as described in example 1) were evaluated by preparing emulsions containing 10% (w/w) of “high oleic” sunflower oil (Oleifico SABO, Manno, Switzerland). Samples with SIN to BLG molar ratio 10 with or without heat treatment were diluted to 0.25 mM BLG and mixed with oil in a Pyrex® tube (D 25 mm, V 35 mL) to a final weight of 20 g. They were pre-homogenized using an Ultra Turrax® T25 equipped with a S25N-10G dispersing head (IKA-Werke, Staufen, Germany) rotating at 16,000 rpm for 1 minute. Homogenization of emulsions was completed using an ultrasonic processor (Hielscher UP400S, power 400 W, frequency 24 kHz) and a sonotrode (diameter 7 mm, approx. length 100 mm, titanium) at room temperature for 75 seconds and 75% amplitude of the ultrasound maximal power. This emulsification time was enough to disperse the oil in small droplets and to avoid excessive heating of the sample. […] Stability of emulsions to creaming and flocculation was followed over 26 days of storage at 4° C."}, "β-lactoglobulin (BLG)": {"molecular_target": "T1, β-lactoglobulin (BLG) (Bos taurus, UniProt P02754)", "T1 construct": "The composition in the major whey protein fraction was 89.22% BLG; purchased Davisco Biopure, lot JE 001-3-922", "T1 sequence (P02754 17-178)": "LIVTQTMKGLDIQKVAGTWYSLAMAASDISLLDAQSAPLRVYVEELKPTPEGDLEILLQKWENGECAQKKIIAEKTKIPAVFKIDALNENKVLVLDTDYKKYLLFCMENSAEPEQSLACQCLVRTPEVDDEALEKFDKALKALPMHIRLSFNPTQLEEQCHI", "assay": "Binding curve of sinigrin to β-lactoglobulin (ultrafiltration, SEC of free SIN)", "set-up": "species or system bovine", "conditions": "for number of maximum binding sites (nmax): SIN to BLG, acidic conditions (pH 4.0), 25° C.", "experimental": "β-Lactoglobulin (BLG) powder was dispersed in Millipore® water by stirring at room temperature for 1 hour. The protein powder was purchased from Davisco (Biopure, lot JE 001-3-922). The protein content was 93.5 g/100 g of powder, as determined by Kjeldahl analysis (N×6.38). The composition in the major whey protein fraction was 89.22% BLG, 6.91% […], 3.87% bovine serum albumin, as determined by reversed phase HPLC(RP-HPLC); 0.2% fat, 1.5% ash and 4.9% moisture, as specified by the supplier. The mineral composition was as follows: 0.87% Na^+, <0.004% K^+, <0.04% Cl^−, 0.019% Ca^2+, 0.053% P, 0.002% Mg^2+, as determined by atomic absorption spectroscopy.\nConcentration of the BLG in the protein solution was 1 mM (1.84% w/w). It was stored overnight at 4° C. to allow hydration. The next day, the protein dispersion was filtered using a Stericup filtration system (Millipore®) with 0.22 μm GP Express Plus membrane. The filtered dispersion (pH 7.2) was either used directly for sample preparation, or it was previously acidified to pH 4.0 using 1M HCl. The amount of 1M HCl added in the latter case was about 1% of the total volume.\nThe glucosinolate solution was prepared on the day of the experiment by dissolving sinigrin (SIN) in Millipore® water to obtain a concentration 20 or 40 mM (0.83. or 1.66% w/w). Sinigrin hydrate (allyl glucosinolate) 99%, was purchased from Sigma (lot 1291054). For the experiments under acidic conditions, SIN solution was acidified to pH 4.0. The amount of 1M HCl added in the latter case was about 1% of the total volume. […]\nAfter incubation, 2×1.5 mL of mixtures were centrifuged using Centrisart® I centrifugal ultrafiltration units with cellulose triacetate ultrafilters having molecular weight cut-off of 10 kDa (Sartorious, Germany) in a Sorvall RC 3C PLUS centrifuge with a swing bucket rotor (Thermo, Switzerland), for 30 min at 2900×g. Ultrafiltrates were collected, diluted 10 times in Millipore® water, and then analyzed by size exclusion HPLC (SEC) to determine the amount of free (unbound) SIN in each sample. […]"}},
  "data": [
    {"smiles": "C=CC/C(=N\\OS(=O)(=O)[O-])S[C@@H]1O[C@H](CO)[C@@H](O)[C@H](O)[C@H]1O.O.[K+]", "note": "[SIN, Sinigrin hydrate (allyl glucosinolate)]", "values": [
      {"measurement": "ability to produce a stable oil/water emulsion", "setting": "[1]", "value": "not able to produce a stable oil/water emulsion"},
      {"measurement": "number of maximum binding sites (nmax)", "setting": "β-lactoglobulin (BLG); with heat treatment (85° C., 15 min)", "value": 8.71},
      {"measurement": "number of maximum binding sites (nmax)", "setting": "β-lactoglobulin (BLG); without heat treatment", "value": 15.4},
      {"measurement": "amount of bound SIN to BLG", "setting": "β-lactoglobulin (BLG); pH 4.0 compared to 7.2", "value": "much higher at pH 4.0 compared to 7.2"}
    ]}
  ]
}
